Laboratory results reported in patent publication US20240287124A1, “PRODRUGS OF 4'-SUBSTITUTED NUCLEOSIDE REVERSE TRANSCRIPTASE INHIBITORS” (Merck Sharp & Dohme LLC, priority 2023, published 2024).

Test system: HIV-1 wild-type (R8) virus
Experiment: Viral KINetics in Green cells (VIKING) assay, HIV-1 replication in MT4-GFP reporter cells
Assay type: cell-based
Settings: Human immunodeficiency virus 1, 10% normal human serum, MT4-GFP cells, HIV-1 wild-type (R8); read-out: Viking (10% NHS), IC50
Description: Antiviral potency of the compounds was determined based on their ability to block HIV-1 replication in a GFP reporter cell line; this assay is referred to as Viral KINetics in Green cells or VIKING assay. HIV-1 replication was monitored using MT4-gag-GFP clone D3 (hereafter designate MT4-GFP) cells, which are MT4 cells modified to harbor a GFP reporter gene, the expression of which is dependent on the HIV-1 proteins tat and rev. (MT4 is a human T-cell line that is particularly sensitive to HIV-1 replication.) HIV-1 infection of MT4-GFP cells results in GFP expression approximately 24 h post-infection. MT4-GFP cells were maintained at 37° C./5% CO2/90% relative humidity in RPMI 1640 supplemented with 10% fetal bovine serum, 100 U/mL penicillin/streptomycin, and […] G418 to maintain the reporter gene. For infections, MT4-GFP cells were placed in the same medium lacking G418 and infected overnight with HIV-1 wild-type (R8) virus at an approximate multiplicity of infection of 0.01 in the same incubation conditions. Cells were then washed and resuspended in RPMI 1640 containing 10% normal human serum at 2×10^5 cells/mL. Compound plates were prepared by dispensing compounds dissolved in DMSO into wells of 384-well poly D lysine-coated plates (0.2 μl/well) using an ECHO acoustic dispenser. Each compound was tested in a 10-point serial 3-fold dilution (typical final concentrations: 4 μM-0.2 nM). Controls included no inhibitor (DMSO only) and a combination of three antiviral agents as a positive control (efavirenz, indinavir, and an integrase strand transfer inhibitor at final concentrations of 4 μM each). Infected cells were added (50 μL/well) to compound plates and were maintained at 37° C./5% CO2/90% relative humidity. Infected cells were quantified at two time points, approximately 48 h and 72 h post-infection, by counting the number of green cells in each well using an Acumen eX3 scanner. The increase in the number of green cells over ˜24 h period gives the reproductive ratio, R, which is calculated by dividing the number of green cells at 72 h over those at 48 h post-infection. The percent inhibition caused by a test compound is calculated using the following formula: […]
The dose-response curves of each test compound were plotted as % inhibition versus the compound concentration. IC50 values were determined by non-linear 4-parameter fitting of the dose-response curves.

Compound | IC50
C#C[C@]1(COC(=O)OCC(C)(C)C)O[C@@H](n2ccc3c(N)nc(Cl)nc32)C[C@@H]1O [Example 123] | 4.1 nM
C#C[C@]1(COC(=O)CCCCC)O[C@@H](n2ccc3c(N)nc(Cl)nc32)C[C@@H]1OC(=O)CCCC[C@@H]1SC[C@@H]2NC(=O)N[C@@H]21 [Example 191] | 20 nM
C#C[C@]1(CO)O[C@@H](n2ccc3c(NC(=O)OCCCCCC)nc(Cl)nc32)C[C@@H]1O [Example 221] | 710 nM
C#C[C@]1(CO)O[C@@H](n2ccc3c(NC(=O)OCCCCCCCCCC)nc(Cl)nc32)C[C@@H]1O [Example 71, Decyl(2-chloro-7-((2R,4S,5R)-5-ethynyl-4-hydroxy-5-(hydroxymethyl)tetrahydrofuran-2-yl)-7H-pyrrolo[2,3-d]pyrimidin-4-yl)carbamate] | 785 nM
C#C[C@]1(COC(=O)OCc2cccnc2)O[C@@H](n2ccc3c(N)nc(Cl)nc32)C[C@@H]1O [Example 165] | 4.9 nM
C#C[C@]1(COC(=O)OCCC23CC(C2)C3)O[C@@H](n2ccc3c(N)nc(Cl)nc32)C[C@@H]1O [Example 170] | 4.3 nM
C#C[C@]1(CO)O[C@@H](n2ccc3c(N(C(=O)OCCCCCCCCCC)C(=O)OCCCCCCCCCC)nc(Cl)nc32)C[C@@H]1O [Example 220] | 615 nM
C#C[C@]1(CO)O[C@@H](n2ccc3c(NC(=O)CCCCCCC)nc(Cl)nc32)C[C@@H]1O [Example 66, N-(2-chloro-7-((2R,4S,5R)-5-ethynyl-4-hydroxy-5-(hydroxymethyl)tetrahydrofuran-2-yl)-7H-pyrrolo[2,3-d]pyrimidin-4-yl)octanamide] | 197 nM
C#C[C@]1(COC(=O)OCc2ccn(C)c(=O)c2)O[C@@H](n2ccc3c(N)nc(Cl)nc32)C[C@@H]1O [Example 131] | 3.5 nM
C#C[C@]1(COC(=O)OCc2ccccc2)O[C@@H](n2ccc3c(N)nc(Cl)nc32)C[C@@H]1OC(=O)CCCCCCC [Example 211] | 4 nM
C#C[C@]1(CO)O[C@@H](n2ccc3c(N(C(=O)OCCCCCCCCCCCC)C(=O)OCCCCCCCCCCCC)nc(Cl)nc32)C[C@@H]1O [Example 218] | > 4030 nM
C#C[C@]1(CO)O[C@@H](n2ccc3c(N)nc(Cl)nc32)C[C@@H]1OC(=O)[C@H](C)c1ccccc1 [Example 99] | 29 nM
C#C[C@]1(COC(=O)OCc2ccc[nH]c2=O)O[C@@H](n2ccc3c(N)nc(Cl)nc32)C[C@@H]1OC(=O)OCc1ccc[nH]c1=O [Example 205] | 4 nM
C#C[C@]1(CO)O[C@@H](n2ccc3c(N)nc(Cl)nc32)C[C@@H]1OC(=O)C12CC(C1)C2 [Example 105] | 3.5 nM
C#C[C@]1(COC(=O)CC23CC(C2)C3)O[C@@H](n2ccc3c(N)nc(Cl)nc32)C[C@@H]1O [Example 97] | 1.6 nM
C#C[C@]1(CO)O[C@@H](n2ccc3c(NC(=O)OCCCCCCCCCCCCCC)nc(Cl)nc32)C[C@@H]1O [Example 63, Tetradecyl (2-chloro-7-((2R,4S,5R)-5-ethynyl-4-hydroxy-5-(hydroxymethyl)tetrahydrofuran-2-yl)-7H-pyrrolo[2,3-d]pyrimidin-4-yl)carbamate] | 1490 nM
C#C[C@]1(COC(=O)OCc2cccn(C)c2=O)O[C@@H](n2ccc3c(N)nc(Cl)nc32)C[C@@H]1OC(=O)OCc1cccn(C)c1=O [Example 206] | 3.4 nM
C#C[C@]1(COC(=O)CCCC)O[C@@H](n2ccc3c(N)nc(Cl)nc32)C[C@@H]1OC(C)=O [Example 186] | 25 nM
C#C[C@]1(CO)O[C@@H](n2ccc3c(NC(=O)OCCCCC[C@@H]4SC[C@@H]5NC(=O)N[C@@H]54)nc(Cl)nc32)C[C@@H]1O [Example 151] | 17 nM
C#C[C@]1(COC(=O)[C@@H](C)c2ccccc2)O[C@@H](n2ccc3c(N)nc(Cl)nc32)C[C@@H]1OC(=O)[C@@H](C)c1ccccc1 [Example 103] | 405 nM

Compound | IC50
C#C[C@]1(COC(=O)OCCCCC[C@@H]2SC[C@@H]3NC(=O)N[C@@H]32)O[C@@H](n2ccc3c(N)nc(Cl)nc32)C[C@@H]1OC(=O)OCCC12CC3CC(CC(C3)C1)C2 [Example 176] | 127 nM
C#C[C@]1(COC(=O)OCc2ccccc2)O[C@@H](n2ccc3c(N)nc(Cl)nc32)C[C@@H]1OC(=O)CCCC[C@@H]1SC[C@@H]2NC(=O)N[C@@H]21 [Example 195] | 40 nM
C#C[C@]1(CO)O[C@@H](n2ccc3c(N(C(=O)OCCCCCCCC)C(=O)OCCCCCCCC)nc(Cl)nc32)C[C@@H]1O [Example 224] | 842 nM
C#C[C@]1(CO)O[C@@H](n2ccc3c(N(C(=O)CCC45CC6CC(CC(C6)C4)C5)C(=O)CCC45CC6CC(CC(C6)C4)C5)nc(Cl)nc32)C[C@@H]1O [Example 217] | > 4030 nM
C#C[C@]1(CO)O[C@@H](n2ccc3c(NC(=O)OCC4CCCCC4)nc(Cl)nc32)C[C@@H]1O [Example 150] | 740 nM
C#C[C@]1(CO)O[C@@H](n2ccc3c(N)nc(Cl)nc32)C[C@@H]1OC(=O)OCc1cccnc1 [Example 166] | 6.7 nM
C#C[C@]1(CO)O[C@@H](n2ccc3c(N)nc(Cl)nc32)C[C@@H]1OC(=O)CC12CC(C1)C2 [Example 96] | 7.1 nM
C#C[C@]1(COC(=O)OCc2cccn(C)c2=O)O[C@@H](n2ccc3c(N)nc(Cl)nc32)C[C@@H]1OC(=O)OCc1ccccc1 [Example 93] | 7.8 nM
C#C[C@]1(COC(=O)OCc2ccn(C)c(=O)c2)O[C@@H](n2ccc3c(N)nc(Cl)nc32)C[C@@H]1OC(=O)OCc1ccccc1 [Example 162] | 8.9 nM
C#C[C@]1(CO)O[C@@H](n2ccc3c(N)nc(Cl)nc32)C[C@@H]1OC(=O)[C@@H](C)c1ccccc1 [Example 102] | 43 nM
C#C[C@]1(CO)O[C@@H](n2ccc3c(N)nc(Cl)nc32)C[C@@H]1OC(=O)OCC [Example 155] | 29 nM
C#C[C@]1(COC(=O)OCCCCC[C@@H]2SC[C@@H]3NC(=O)N[C@@H]32)O[C@@H](n2ccc3c(NC(=O)CCc4ccccc4)nc(Cl)nc32)C[C@@H]1O [Example 204] | 123 nM
C#C[C@]1(COC(=O)OCC23CC(C2)C3)O[C@@H](n2ccc3c(N)nc(Cl)nc32)C[C@@H]1OC(=O)OCC12CC(C1)C2 [Example 167] | 7.2 nM
C#C[C@]1(CO)O[C@@H](n2ccc3c(NC(=O)OCCCCCCCCCCCC)nc(Cl)nc32)C[C@@H]1O [Example 219] | 2410 nM
C#C[C@]1(COC(=O)CCCC)O[C@@H](n2ccc3c(N)nc(Cl)nc32)C[C@@H]1OC(=O)CC [Example 187] | 27 nM
C#C[C@]1(COC(=O)OCCCCCCCC)O[C@@H](n2ccc3c(N)nc(Cl)nc32)C[C@@H]1OC(C)=O [Example 112] | 28 nM
C#C[C@]1(COC(=O)Cc2ccc(Cl)cc2)O[C@@H](n2ccc3c(N)nc(Cl)nc32)C[C@@H]1OC(=O)OCCC12CC3CC(CC(C3)C1)C2 [Example 107] | 74 nM
C#C[C@]1(COC(=O)OCCCCC[C@@H]2SC[C@@H]3NC(=O)N[C@@H]32)O[C@@H](n2ccc3c(N)nc(Cl)nc32)C[C@@H]1O [Example 132] | 3 nM
C#C[C@]1(COC(=O)CCCC[C@@H]2SC[C@@H]3NC(=O)N[C@@H]32)O[C@@H](n2ccc3c(N)nc(Cl)nc32)C[C@@H]1OC(=O)OCC [Example 196] | 27 nM
